Test results as given in patent US10736883B2, “Triazole furan compounds as agonists of the APJ receptor” (AMGEN INC., priority 2016, dated 2020).
pEC50: −log10 of the molar value.

Biological target: APJ receptor (Homo sapiens (Human), UniProt P35414)
Assay: [35S]GTPγS binding assay on membranes from CHO cells stably expressing human APJ receptor
Type: biochemical
Settings: membranes of CHO cells stably expressing human APJ receptor, means of several independent experiments, read-out: Activity hAPJ SPA EC50 IP
Procedure, shortened: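 Membranes from CHO cells stably expressing human APJ were incubated with 0.2 nM [35S]GTPγS and ligands for 90 min at RT in 20 mM HEPES pH 7.5, 5 mM MgCl2, 200 mM NaCl, 3 μM GDP, 0.1% BSA with WGA PS beads. Nonspecific binding was set with 100 μM GTPγS. EC50 came from non-linear regression.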

Chain of APJ receptor (P35414 whole entry): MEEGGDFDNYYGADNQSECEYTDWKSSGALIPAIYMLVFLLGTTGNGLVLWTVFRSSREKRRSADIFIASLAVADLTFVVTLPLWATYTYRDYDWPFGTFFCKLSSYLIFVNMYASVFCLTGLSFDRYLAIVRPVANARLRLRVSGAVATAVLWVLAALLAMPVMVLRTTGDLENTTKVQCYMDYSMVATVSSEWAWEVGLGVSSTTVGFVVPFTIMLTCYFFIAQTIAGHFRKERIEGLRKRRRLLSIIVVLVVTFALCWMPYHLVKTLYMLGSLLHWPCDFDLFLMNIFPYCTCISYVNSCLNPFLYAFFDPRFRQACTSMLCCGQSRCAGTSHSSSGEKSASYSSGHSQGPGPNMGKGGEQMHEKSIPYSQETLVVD

Structure (SMILES) | pEC50
COc1cccc(OC)c1-n1c(NS(=O)(=O)[C@@H](C)[C@@](C)(O)c2ccc(C#N)cn2)nnc1-c1ccc(C)o1 (single isomer, unassigned) [Example 227.0] | 9.46
COc1cccc(OC)c1-n1c(NS(=O)(=O)[C@@H](C)[C@](C)(F)c2ncc(C#N)cn2)nnc1-c1ccc(C)o1 (single isomer, unassigned) [Example 230.0] | 9.39
COc1cccc(OC)c1-n1c(NS(=O)(=O)C[C@@](C)(F)c2ncc(C#N)cn2)nnc1-c1ccc(C)o1 (single isomer, unassigned) [Example 231.0, (2S)-2-(5-Cyano-2-pyrimidinyl)-N-(4-(2,6-dimethoxyphenyl)-5-(5-methyl-2-furanyl)-4H-1,2,4-triazol-3-yl)-2-fluoro-1-propanesulfonamide or (2R)-2-(5-cyano-2-pyrimidinyl)-N-(4-(2,6-dimethoxyphenyl)-5-(5-methyl-2-furanyl)-4H-1,2,4-triazol-3-yl)-2-fluoro-1-propanesulfonamide] | 9.36
COc1cccc(OC)c1-n1c(NS(=O)(=O)C[C@](C)(O)c2ncc(C#N)cn2)nnc1-c1ccc(C)o1 (single isomer, unassigned) [Example 233.0, (R)-2-(5-Cyanopyrimidin-2-yl)-N-(4-(2,6-dimethoxyphenyl)-5-(5-methylfuran-2-yl)-4H-1,2,4-triazol-3-yl)-2-hydroxypropane-1-sulfonamide or (S)-2-(5-cyanopyrimidin-2-yl)-N-(4-(2,6-dimethoxyphenyl)-5-(5-methylfuran-2-yl)-4H-1,2,4-triazol-3-yl)-2-hydroxypropane-1-sulfonamide] | 9.30
COc1cccc(OC)c1-n1c(NS(=O)(=O)C[C@@](C)(F)c2ncc(F)cn2)nnc1-c1ccc(C)o1 (single isomer, unassigned) [Example 237.0, (2S)—N-(4-(2,6-Dimethoxyphenyl)-5-(5-methyl-2-furanyl)-4H-1,2,4-triazol-3-yl)-2-fluoro-2-(5-fluoro-2-pyrimidinyl)-1-propanesulfonamide or (2R)—N-(4-(2,6-dimethoxyphenyl)-5-(5-methyl-2-furanyl)-4H-1,2,4-triazol-3-yl)-2-fluoro-2-(5-fluoro-2-pyrimidinyl)-1-propanesulfonamide] | 9.24
COc1cccc(OC)c1-n1c(NS(=O)(=O)[C@@H](C)[C@](C)(N)c2ncc(F)cn2)nnc1-c1ccc(C)o1 (single isomer, unassigned) [Example 243.0] | 9.06
COc1cccc(OC)c1-n1c(NS(=O)(=O)C[C@](C)(F)c2ncc(C#N)cn2)nnc1-c1ccc(C)o1 (single isomer, unassigned) [Example 245.0, (2R)-2-(5-Cyano-2-pyrimidinyl)-N-(4-(2,6-dimethoxyphenyl)-5-(5-methyl-2-furanyl)-4H-1,2,4-triazol-3-yl)-2-fluoro-1-propanesulfonamide or (2S)-2-(5-cyano-2-pyrimidinyl)-N-(4-(2,6-dimethoxyphenyl)-5-(5-methyl-2-furanyl)-4H-1,2,4-triazol-3-yl)-2-fluoro-1-propanesulfonamide] | 9.02
COc1cccc(OC)c1-n1c(NS(=O)(=O)[C@@H](C)[C@](C)(N)c2ncc(F)cn2)nnc1-c1ccc(C)o1 (single isomer, unassigned) [Example 246.0] | 8.85
COc1cccc(OC)c1-n1c(NS(=O)(=O)C[C@@](C)(O)c2ncc(C#N)cn2)nnc1-c1ccc(C)o1 (single isomer, unassigned) [Example 248.0, (2S)-2-(5-Cyano-2-pyrimidinyl)-N-(4-(2,6-dimethoxyphenyl)-5-(5-methyl-2-furanyl)-4H-1,2,4-triazol-3-yl)-2-hydroxy-1-propanesulfonamide or (2R)-2-(5-cyano-2-pyrimidinyl)-N-(4-(2,6-dimethoxyphenyl)-5-(5-methyl-2-furanyl)-4H-1,2,4-triazol-3-yl)-2-hydroxy-1-propanesulfonamide] | 8.80
COc1cccc(OC)c1-n1c(NS(=O)(=O)C[C@@](C)(O)c2ncc(F)cn2)nnc1-c1ccc(C)o1 (single isomer, unassigned) [Example 249.0] | 8.60
COc1cccc(OC)c1-n1c(NS(=O)(=O)[C@@H](C)[C@H](OC)c2cn3ccccc3n2)nnc1-c1ccc(C)o1 (single isomer, unassigned) [Example 263.0, (1R,2S)—N-(4-(2,6-Dimethoxyphenyl)-5-(5-methyl-2-furanyl)-4H-1,2,4-triazol-3-yl)-1-imidazo[1,2-a]pyridin-2-yl-1-methoxy-2-propanesulfonamide or (1S,2R)—N-(4-(2,6-dimethoxyphenyl)-5-(5-methyl-2-furanyl)-4H-1,2,4-triazol-3-yl)-1-imidazo[1,2-a]pyridin-2-yl-1-methoxy-2-propanesulfonamide] | 10.07
COc1cccc(OC)c1-n1c(NS(=O)(=O)[C@@H](C)[C@H](O)c2cn3ccccc3n2)nnc1-c1ccc(C)o1 (single isomer, unassigned) [Example 265.0, (1R,2S)—N-(4-(2,6-Dimethoxyphenyl)-5-(5-methyl-2-furanyl)-4H-1,2,4-triazol-3-yl)-1-hydroxy-1-imidazo[1,2-a]pyridin-2-yl-2-propanesulfonamide or (1S,2R)—N-(4-(2,6-dimethoxyphenyl)-5-(5-methyl-2-furanyl)-4H-1,2,4-triazol-3-yl)-1-hydroxy-1-imidazo[1,2-a]pyridin-2-yl-2-propanesulfonamide] | 9.74
COc1cccc(OC)c1-n1c(NS(=O)(=O)[C@@H](C)[C@H](O)c2cc3ccccn3n2)nnc1-c1ccc(C)o1 (single isomer, unassigned) [Example 266.0, (1R,2S)—N-(4-(2,6-Dimethoxyphenyl)-5-(5-methyl-2-furanyl)-4H-1,2,4-triazol-3-yl)-1-hydroxy-1-pyrazolo[1,5-a]pyridin-2-yl-2-propanesulfonamide or (1S,2R)—N-(4-(2,6-dimethoxyphenyl)-5-(5-methyl-2-furanyl)-4H-1,2,4-triazol-3-yl)-1-hydroxy-1-pyrazolo[1,5-a]pyridin-2-yl-2-propanesulfonamide] | 9.68
COc1cccc(OC)c1-n1c(NS(=O)(=O)[C@@H](C)[C@H](O)c2cccc3ccnn23)nnc1-c1ccc(C)o1 (single isomer, unassigned) [Example 267.0, (1R,2S)—N-(4-(2,6-Dimethoxyphenyl)-5-(5-methyl-2-furanyl)-4H-1,2,4-triazol-3-yl)-1-hydroxy-1-pyrazolo[1,5-a]pyridin-7-yl-2-propanesulfonamide or (1S,2R)—N-(4-(2,6-dimethoxyphenyl)-5-(5-methyl-2-furanyl)-4H-1,2,4-triazol-3-yl)-1-hydroxy-1-pyrazolo[1,5-a]pyridin-7-yl-2-propanesulfonamide] | 9.37
COc1cccc(OC)c1-n1c(NS(=O)(=O)[C@H](C)[C@H](OC)c2cn3ccccc3n2)nnc1-c1ccc(C)o1 (single isomer, unassigned) [Example 268.0, (1S,2S)—N-(4-(2,6-Dimethoxyphenyl)-5-(5-methyl-2-furanyl)-4H-1,2,4-triazol-3-yl)-1-imidazo[1,2-a]pyridin-2-yl-1-methoxy-2-propanesulfonamide or (1R,2R)—N-(4-(2,6-dimethoxyphenyl)-5-(5-methyl-2-furanyl)-4H-1,2,4-triazol-3-yl)-1-imidazo[1,2-a]pyridin-2-yl-1-methoxy-2-propanesulfonamide] | 9.33
COc1cccc(OC)c1-n1c(NS(=O)(=O)[C@H](C)[C@@H](O)c2ncn3ccccc23)nnc1-c1ccc(C)o1 (single isomer, unassigned) [Example 270.0, (1R,2S)—N-(4-(2,6-Dimethoxyphenyl)-5-(5-methyl-2-furanyl)-4H-1,2,4-triazol-3-yl)-1-hydroxy-1-imidazo[1,5-a]pyridin-1-yl-2-propanesulfonamide or (1S,2R)—N-(4-(2,6-dimethoxyphenyl)-5-(5-methyl-2-furanyl)-4H-1,2,4-triazol-3-yl)-1-hydroxy-1-imidazo[1,5-a]pyridin-1-yl-2-propanesulfonamide] | 9.25
COc1cccc(OC)c1-n1c(NS(=O)(=O)[C@@H](C)[C@@H](O)c2cc3ccccn3n2)nnc1-c1ccc(C)o1 (single isomer, unassigned) [Example 271.0, (1S,2S)—N-(4-(2,6-Dimethoxyphenyl)-5-(5-methyl-2-furanyl)-4H-1,2,4-triazol-3-yl)-1-hydroxy-1-pyrazolo[1,5-a]pyridin-2-yl-2-propanesulfonamide or (1R,2R)—N-(4-(2,6-dimethoxyphenyl)-5-(5-methyl-2-furanyl)-4H-1,2,4-triazol-3-yl)-1-hydroxy-1-pyrazolo[1,5-a]pyridin-2-yl-2-propanesulfonamide] | 9.21
COc1cccc(OC)c1-n1c(NS(=O)(=O)[C@@H](C)[C@H](O)c2cn(C)cn2)nnc1-c1ccc(C)o1 (single isomer, unassigned) [Example 273.0, (1R,2S)—N-(4-(2,6-Dimethoxyphenyl)-5-(5-methyl-2-furanyl)-4H-1,2,4-triazol-3-yl)-1-hydroxy-1-(1-methyl-1H-imidazol-4-yl)-2-propanesulfonamide or (1S,2R)—N-(4-(2,6-dimethoxyphenyl)-5-(5-methyl-2-furanyl)-4H-1,2,4-triazol-3-yl)-1-hydroxy-1-(1-methyl-1H-imidazol-4-yl)-2-propanesulfonamide] | 9.14
COc1cccc(OC)c1-n1c(NS(=O)(=O)[C@@H](C)[C@H](O)c2coc(C)n2)nnc1-c1ccc(C)o1 (single isomer, unassigned) [Example 275.0, (1R,2S)—N-(4-(2,6-Dimethoxyphenyl)-5-(5-methyl-2-furanyl)-4H-1,2,4-triazol-3-yl)-1-hydroxy-1-(2-methyl-1,3-oxazol-4-yl)-2-propanesulfonamide or (1S,2R)—N-(4-(2,6-dimethoxyphenyl)-5-(5-methyl-2-furanyl)-4H-1,2,4-triazol-3-yl)-1-hydroxy-1-(2-methyl-1,3-oxazol-4-yl)-2-propanesulfonamide] | 9.07
